Measurements as given in US8735384B2, “Amino heteroaryl compounds as beta-secretase modulators and methods of use” (Amgen Inc., priority 2010, dated 2014).

Columns and labels:
BACE1 = BACE1 (Homo sapiens, UniProt P56817); test: In vitro enzymatic BACE FRET assay; format: biochemical; conditions: beta secretase enzyme 0.2 nM, FRET substrate 50 nM, pH 4.2; read-out: BACE1 FRET assay (IC50 class)
Procedure, shortened: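 Beta-secretase (0.2 nM) was pre-incubated 1 h with serially diluted inhibitor in 0.05 M acetate pH 4.2, 10% DMSO, 100 uM genapol. Then 50 nM quenched peptide FRET substrate was added for 1 h. The reaction was stopped with Tris to neutral pH and fluorescence read ([…]).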

[1] = test system: Aβ40 in conditioned medium of cells stably expressing Amyloid Precursor Protein (APP); test: In vitro BACE cell-based assay (HEK cell assay), Aβ40 sandwich ELISA; conditions: Homo sapiens, HEK293, 24 h, inhibition of Aβ40, 24 h incubation, read-out: HEK cell assay (IC50 class)
Procedure, shortened: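 APP-stably expressing cells (40K/well) grown 24 h, then treated 24 h with 10-point doses from 100 μM or 10 μM top (0.1% DMSO). Secreted Aβ40 quantified by sandwich ELISA (pAb40 capture, biotinylated 6E10 detection, europium time-resolved fluorescence); IC50 from percent inhibition versus concentration.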

BACE1, sequence (P56817 46-501, species assumed): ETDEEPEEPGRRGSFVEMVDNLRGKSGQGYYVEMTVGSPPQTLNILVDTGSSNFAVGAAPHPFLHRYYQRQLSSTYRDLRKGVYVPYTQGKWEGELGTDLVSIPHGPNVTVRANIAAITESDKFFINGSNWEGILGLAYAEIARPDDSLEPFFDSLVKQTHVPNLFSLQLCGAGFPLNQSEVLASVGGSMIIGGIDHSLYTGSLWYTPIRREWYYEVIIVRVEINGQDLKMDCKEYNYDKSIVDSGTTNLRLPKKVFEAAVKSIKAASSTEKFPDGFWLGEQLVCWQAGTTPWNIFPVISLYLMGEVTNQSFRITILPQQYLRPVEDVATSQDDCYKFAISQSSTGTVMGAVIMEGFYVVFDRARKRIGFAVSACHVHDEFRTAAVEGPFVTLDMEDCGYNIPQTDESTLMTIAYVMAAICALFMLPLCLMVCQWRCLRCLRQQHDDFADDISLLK

Q: With Cc1cccc(C(=O)N2CCSCC2)c1-c1ccc2nc(N)c(N3CCOCC3)cc2c1 [Example 91, (2-(2-amino-3-morpholinoquinolin-6-yl)-3-methylphenyl)(thiomorpholino)methanone] as the molecule, how does the IC50 (BACE1) read?
A: The IC50 was < 0.1 µM.

Q: What about the IC50 [1] of the same molecule?
A: The IC50 was 1.01 to 5 µM.

Q: For COCCC1CN(c2cc3cc(-c4c(C)cccc4C(=O)N4CCCC4)ccc3nc2N)CCO1 (stereo not drawn) [Example 214, (2-(2-amino-3-(2-(2-methoxyethyl)morpholino)quinolin-6-yl)-3-methylphenyl)(pyrrolidin-1-yl)methanone], which IC50 (BACE1) is on record?
A: Its IC50 is < 0.1 µM.

Q: What about the IC50 [1] of the same molecule?
A: Its IC50 is 0.1 to 0.5 µM.

Q: Which IC50 (BACE1) does the source give for Cc1cccc(C(=O)c2ccccn2)c1-c1ccc2nc(N)c(N3CCOCC3)cc2c1 [Example 157, (2-(2-amino-3-morpholinoquinolin-6-yl)-3-methylphenyl)(pyridin-2-yl)methanone] here?
A: The IC50 was < 0.1 µM.

Q: And the IC50 [1]?
A: The IC50 was 0.501 to 1 µM.

Q: Cc1cccc(C(=O)N2CCCC(F)(F)C2)c1-c1ccc2nc(N)c(N3CCOCC3)cc2c1 [Example 97, (2-(2-amino-3-morpholinoquinolin-6-yl)-3-methylphenyl)(3,3-difluoropiperidin-1-yl)methanone] was tested. Which IC50 (BACE1) did it give?
A: The IC50 was < 0.1 µM.

Q: And the IC50 [1]?
A: Its IC50 is 0.501 to 1 µM.

Q: CO/N=C(\c1ccccc1)c1cccc(C)c1-c1ccc2nc(N)c(N3CCOCC3)cc2c1 [Example 15, (E)-(2-(2-amino-3-morpholinoquinolin-6-yl)-3-methylphenyl)(phenyl)methanone O-methyl oxime] was tested. Which IC50 (BACE1) did it give?
A: The IC50 was < 0.1 µM.

Q: What about the IC50 [1] of the same molecule?
A: The IC50 was 0.501 to 1 µM.

Q: Cc1cccc(-n2cc(Cl)cn2)c1-c1ccc2nc(N)c(N3CCOCC3)cc2c1 [Example 204, 6-(2-(4-chloro-1H-pyrazol-1-yl)-6-methylphenyl)-3-morpholinoquinolin-2-amine] was tested. Which IC50 (BACE1) did it give?
A: Its IC50 is 0.501 to 1 µM.

Q: And the IC50 [1]?
A: The IC50 was > 5 µM.

Q: How did the IC50 (BACE1) turn out when Cc1cccc(-c2cccc(C(F)(F)F)c2)c1-c1ccc2nc(N)c(N3CCOCC3)cc2c1 [Example 25, 6-(3-methyl-3′-(trifluoromethyl)biphenyl-2-yl)-3-morpholinoquinolin-2-amine] was run?
A: The IC50 was < 0.1 µM.

Q: What about the IC50 [1] of the same molecule?
A: Its IC50 is > 5 µM.

Q: Which results are given for CCN(C(=O)c1cccc(C)c1-c1ccc2nc(N)c(N3CCOCC3)cc2c1)C1CC1 [Example 107, 2-(2-amino-3-morpholinoquinolin-6-yl)-N-cyclopropyl-N-ethyl-3-methylbenzamide]?
A: IC50 (BACE1): 0.1 to 0.5 µM; IC50 [1]: 1.01 to 5 µM

Q: With Nc1nc2ccc(-c3ccccc3Cl)cc2cc1N1CCOCC1 [Example 219, 6-(2-chlorophenyl)-3-morpholinoquinolin-2-amine] as the molecule, how does the IC50 (BACE1) read?
A: The IC50 was 0.501 to 1 µM.

Q: What about the IC50 [1] of the same molecule?
A: Its IC50 is > 5 µM.

Q: Which results are given for Cc1cccc(C(=O)CC(C)C)c1-c1ccc2nc(N)c(N3CCOCC3)cc2c1 [Example 182, 1-(2-(2-amino-3-morpholinoquinolin-6-yl)-3-methylphenyl)-3-methylbutan-1-one]?
A: IC50 (BACE1): < 0.1 µM; IC50 [1]: 0.501 to 1 µM

Q: How did the IC50 (BACE1) turn out when Nc1nc2ccc(-c3cccc(Cl)c3C(=O)N3CCCC3)cc2cc1N1CCOCC1 [Example 141, (2-(2-amino-3-morpholinoquinolin-6-yl)-6-chlorophenyl)(pyrrolidin-1-yl)methanone] was run?
A: The IC50 was 1.01 to 5 µM.

Q: And the IC50 [1]?
A: The IC50 was > 5 µM.

Q: For Cc1cccc(C(=O)N2CCCC2)c1-c1ccc2nc(N)c(N3CCOC[C@H]3C)cc2c1 [Example 20, (R)-(2-(2-amino-3-(3-methylmorpholino)quinolin-6-yl)-3-methylphenyl)(pyrrolidin-1-yl)methanone], which IC50 (BACE1) is on record?
A: Its IC50 is < 0.1 µM.

Q: And the IC50 [1]?
A: The IC50 was 0.501 to 1 µM.

Q: How did the IC50 (BACE1) turn out when Cc1cccc(C(=O)N2CCCC2)c1-c1ccc2nc(N)c(N3CCOC(C)(C)C3)cc2c1 [Example 215, (2-(2-amino-3-(2,2-dimethylmorpholino)quinolin-6-yl)-3-methylphenyl)(pyrrolidin-1-yl)methanone] was run?
A: Its IC50 is < 0.1 µM.

Q: And the IC50 [1]?
A: Its IC50 is 0.501 to 1 µM.

Q: What does the source list for Cc1cccc(C(=O)N(C)CC(C)C)c1-c1ccc2nc(N)c(N3CCOCC3)cc2c1 [Example 104, 2-(2-amino-3-morpholinoquinolin-6-yl)-N-isobutyl-N,3-dimethylbenzamide]?
A: IC50 (BACE1): < 0.1 µM; IC50 [1]: 0.501 to 1 µM

Q: Cc1cccc(C(=O)N(C)[C@H](C)c2ccccc2)c1-c1ccc2nc(N)c(N3CCOCC3)cc2c1 [Example 133, (R)-2-(2-amino-3-morpholinoquinolin-6-yl)-N,3-dimethyl-N-(1-phenylethyl)benzamide] was tested. Which IC50 (BACE1) did it give?
A: Its IC50 is < 0.1 µM.

Q: What about the IC50 [1] of the same molecule?
A: Its IC50 is 1.01 to 5 µM.

Q: How did the IC50 (BACE1) turn out when Nc1nc2ccc(-c3c(CCc4ccccc4)cccc3C(=O)N3CCCC3)cc2cc1N1CCOCC1 [Example 162, (2-(2-amino-3-morpholinoquinolin-6-yl)-3-phenethylphenyl)(pyrrolidin-1-yl)methanone] was run?
A: The IC50 was < 0.1 µM.

Q: What about the IC50 [1] of the same molecule?
A: The IC50 was < 0.1 µM.

Q: Which IC50 (BACE1) does the source give for CCCC1CCCCN1C(=O)c1cccc(C)c1-c1ccc2nc(N)c(N3CCOCC3)cc2c1 (stereo not drawn) [Example 79, (2-(2-amino-3-morpholinoquinolin-6-yl)-3-methylphenyl)(2-propylpiperidin-1-yl)methanone] here?
A: The IC50 was 0.1 to 0.5 µM.

Q: What about the IC50 [1] of the same molecule?
A: Its IC50 is 1.01 to 5 µM.

Q: Which IC50 (BACE1) does the source give for COc1ccccc1C(=O)c1cccc(C)c1-c1ccc2nc(N)c(N3CCOCC3)cc2c1 [Example 7, (2-(2-amino-3-morpholinoquinolin-6-yl)-3-methylphenyl)(2-methoxyphenyl)methanone] here?
A: Its IC50 is < 0.1 µM.

Q: And the IC50 [1]?
A: Its IC50 is 0.1 to 0.5 µM.

Q: Which IC50 (BACE1) does the source give for Cc1cccc(C(=O)N2CCCC2C)c1-c1ccc2nc(N)c(N3CCOCC3)cc2c1 (stereo not drawn) [Example 67, (2-(2-amino-3-morpholinoquinolin-6-yl)-3-methylphenyl)(2-methylpyrrolidin-1-yl)methanone] here?
A: The IC50 was < 0.1 µM.

Q: What about the IC50 [1] of the same molecule?
A: Its IC50 is 0.1 to 0.5 µM.

Q: What does the source list for CC(C)(C)CCc1cccc(C(=O)N2CCCC2)c1-c1ccc2nc(N)c(N3CCOCC3)cc2c1 [Example 45, (2-(2-amino-3-morpholinoquinolin-6-yl)-3-(3,3-dimethylbutyl)phenyl)(pyrrolidin-1-yl)methanone]?
A: IC50 (BACE1): < 0.1 µM; IC50 [1]: < 0.1 µM

Q: Which results are given for Cc1ccc(C2(C)CN(c3cc4cc(-c5c(C)cccc5C(=O)N5CCCC5)ccc4nc3N)CCO2)cc1 (stereo not drawn) [Example 217, (2-(2-amino-3-(2-methyl-2-p-tolylmorpholino)quinolin-6-yl)-3-methylphenyl)(pyrrolidin-1-yl)methanone]?
A: IC50 (BACE1): 0.1 to 0.5 µM; IC50 [1]: 1.01 to 5 µM

Q: With Cc1cccc(C(=O)N2CCCC2)c1-c1ccc2nc(N)c(N3CCCC3)cc2c1 [Example 60, (2-(2-amino-3-(pyrrolidin-1-yl)quinolin-6-yl)-3-methylphenyl)(pyrrolidin-1-yl)methanone] as the molecule, how does the IC50 (BACE1) read?
A: The IC50 was 0.1 to 0.5 µM.

Q: What about the IC50 [1] of the same molecule?
A: The IC50 was 1.01 to 5 µM.

Q: What does the source list for CCOC(=O)c1cc(F)cc(C)c1-c1ccc2nc(N)c(N3CCOCC3)cc2c1 [Example 129, ethyl 2-(2-amino-3-morpholinoquinolin-6-yl)-5-fluoro-3-methylbenzoate]?
A: IC50 (BACE1): 0.1 to 0.5 µM; IC50 [1]: 1.01 to 5 µM

Q: Which IC50 (BACE1) does the source give for Cc1cccc(C(=O)N2CC(C)CC(C)C2)c1-c1ccc2nc(N)c(N3CCOCC3)cc2c1 (stereo not drawn) [Example 88, (2-(2-amino-3-morpholinoquinolin-6-yl)-3-methylphenyl)(3,5-dimethylpiperidin-1-yl)methanone] here?
A: Its IC50 is 0.1 to 0.5 µM.

Q: What about the IC50 [1] of the same molecule?
A: The IC50 was 1.01 to 5 µM.

Q: With Cc1cccc(C(=O)N(C)CC(F)(F)F)c1-c1ccc2nc(N)c(N3CCOCC3)cc2c1 [Example 100, 2-(2-amino-3-morpholinoquinolin-6-yl)-N,3-dimethyl-N-(2,2,2-trifluoroethyl)benzamide] as the molecule, how does the IC50 (BACE1) read?
A: The IC50 was 0.1 to 0.5 µM.

Q: And the IC50 [1]?
A: The IC50 was 1.01 to 5 µM.

Q: What does the source list for Nc1nc2ccc(-c3c(Cl)cccc3C(=O)N3CCOCC3)cc2cc1N1CCOCC1 [Example 144, (2-(2-amino-3-morpholinoquinolin-6-yl)-3-chlorophenyl)(morpholino)methanone]?
A: IC50 (BACE1): 0.1 to 0.5 µM; IC50 [1]: 1.01 to 5 µM

Q: CCOC1CCCN(C(=O)c2cccc(C)c2-c2ccc3nc(N)c(N4CCOCC4)cc3c2)C1 (stereo not drawn) [Example 85, (2-(2-amino-3-morpholinoquinolin-6-yl)-3-methylphenyl)(3-ethoxypiperidin-1-yl)methanone] was tested. Which IC50 (BACE1) did it give?
A: Its IC50 is 0.1 to 0.5 µM.

Q: What about the IC50 [1] of the same molecule?
A: Its IC50 is 1.01 to 5 µM.

Q: With Cc1cccc(Cc2cnccn2)c1-c1ccc2nc(N)c(N3CCOCC3)cc2c1 [Example 37, 6-(2-methyl-6-(pyrazin-2-ylmethyl)phenyl)-3-morpholinoquinolin-2-amine] as the molecule, how does the IC50 (BACE1) read?
A: Its IC50 is 0.501 to 1 µM.

Q: What about the IC50 [1] of the same molecule?
A: Its IC50 is 1.01 to 5 µM.

Q: Which IC50 (BACE1) does the source give for Cc1cccc(CCC(C)(C)C)c1-c1ccc2nc(N)c(N3CCOCC3)cc2c1 [Example 172, 6-(2-(3,3-dimethylbutyl)-6-methylphenyl)-3-morpholinoquinolin-2-amine] here?
A: The IC50 was < 0.1 µM.

Q: And the IC50 [1]?
A: The IC50 was 1.01 to 5 µM.

Q: Which results are given for Nc1nc2ccc(-c3ccccc3C(=O)c3ccccc3)cc2cc1N1CCOCC1 [Example 151, (2-(2-amino-3-morpholinoquinolin-6-yl)phenyl)(phenyl)methanone]?
A: IC50 (BACE1): 0.1 to 0.5 µM; IC50 [1]: 1.01 to 5 µM

Q: For Cc1cc(F)cc(C(=O)N2CCCC2)c1-c1ccc2nc(N)c(N3CCOCC3)cc2c1 [Example 27, (2-(2-amino-3-morpholinoquinolin-6-yl)-5-fluoro-3-methylphenyl)(pyrrolidin-1-yl)methanone], which IC50 (BACE1) is on record?
A: Its IC50 is < 0.1 µM.

Q: And the IC50 [1]?
A: The IC50 was 0.1 to 0.5 µM.

Q: For Nc1nc2ccc(-c3c(C#CC4CCCCC4)cccc3C(=O)N3CCCC3)cc2cc1N1CCOCC1 [Example 167, (2-(2-amino-3-morpholinoquinolin-6-yl)-3-(cyclohexylethynyl)phenyl)(pyrrolidin-1-yl)methanone], which IC50 (BACE1) is on record?
A: Its IC50 is < 0.1 µM.

Q: And the IC50 [1]?
A: Its IC50 is < 0.1 µM.

Q: With Nc1nc2ccc(-c3ccccc3C(=O)C3CCOCC3)cc2cc1N1CCOCC1 [Example 11, (2-(2-amino-3-morpholinoquinolin-6-yl)phenyl)(tetrahydro-2H-pyran-4-yl)methanone] as the molecule, how does the IC50 (BACE1) read?
A: The IC50 was 0.1 to 0.5 µM.

Q: What about the IC50 [1] of the same molecule?
A: Its IC50 is 1.01 to 5 µM.
